Results taken from patent publication US12595236B2, “Pyrimidine-2,4-diamine compound and preparation method and application thereof” (ANHUI MEDICAL UNIVERSITY, priority 2021, dated 2026).

Experiments:
[1] = target: human recombinant cathepsin C (Homo sapiens, UniProt P53634); assay: In vitro inhibitory effect on human recombinant cathepsin C (h-gly-arg-amc substrate); type: biochemical; settings: human recombinant cathepsin C 2 nM, 30 min preincubation at 25° C., substrate 100 μM; read-out: CatC IC50
[2] = target: T1, intracellular cathepsin C in THP-1 cells (Homo sapiens, UniProt P53634); assay: In vitro inhibitory effect on intracellular cathepsin C in THP-1 cells; type: cell-based; settings: 1 h incubation at 37° C., h-gly-arg-amc 200 μM, read-out: THP-1 CatC IC50
T1 construct: endogenous in cells; host or cells: THP-1

[3] = target: T2, intracellular cathepsin C in U937 cells (Homo sapiens, UniProt P53634); assay: In vitro inhibitory effect on intracellular cathepsin C in U937 cells; type: cell-based; settings: 1 h incubation at 37° C., h-gly-arg-amc 200 μM, read-out: U937 CatC IC50
T2 construct: endogenous in cells; host or cells: U937

[4] = In vivo acute toxicity evaluation; settings: mouse, ICR mice, oral, 1500 mg/kg at one time, observed one week
Source text: (§1) In Vivo Acute Toxicity Evaluation:
(§2) The mice were randomly divided into two groups and subjected to adaptive feeding for one week. […] The body weight, mortality and behavior of the mice were observed and recorded daily for one week. Subsequently, the mice were anesthetized and the tissues were used for HE staining.

ICR mice = assay: In vivo acute toxicity evaluation; settings: mouse, po, 1500 mg/kg
Source text: as §1, §2

cathepsin C and NSPs = assay: Test of in vivo inhibition of cathepsin C and NSPs in normal mice; settings: C57BL/6 mice, oral 5, 15, 45 mg/kg for 6 days; bone marrow and blood; dose-dependent
Protocol: Test of In Vivo Inhibition of Cathepsin C and NSPs.
C57BL/6 mice (half sex, about 20 g, purchased from the Department of Animal Science of Anhui Medical University) were randomly divided into four groups (N=6). […] Mice in the control group were administered with the same amount of normal saline twice a day for 6 days. At the end, bone marrow and blood were drawn to analyze the activity of cathepsin C and NSPs. Bone marrow and blood lysates were added to a 384-well plate. A synthetic peptide substrate was used to analyze the activity of NSPs and cathepsin C.

COPD rat model = assay: In vivo anti-inflammatory activity assessment, COPD model (fumigation and LPS); parameters: species or system rats; settings: oral 5, 15, 45 mg/kg twice a day
Protocol: In Vivo Anti-Inflammatory Activity Assessment:
(§3) A combination of fumigation and LPS (Sigma) was used. […] Except for the negative control group, all rats were exposed to cigarette smoke (XIONGSHI) for 45 min in each day from day 1 to day 13 and day 15 to day 30, subjected to tracheal instillation of LPS ([…]) on day 0 (start point of the study), and subjected to tracheal instillation of LPS ([…]) on day 14. The body weight was recorded every three days, and the behavior, coat color and breathing were observed daily. On day 31, the animals were euthanized with an overdose of chloral hydrate. Subsequently, lung, bronchoalveolar lavage fluid (BALF), blood, bone marrow samples were collected and stored at −80° C. until being detected. The levels of cathepsin C and NSP were detected with previously described methods, and cytokine levels in all samples were analyzed by ELISA kits (MULTI SCIENCES).

[5] = system: cathepsin C and downstream NSPs; assay: Cathepsin C and NSP levels in COPD model; type: in vivo; settings: COPD rats, oral 5, 15, 45 mg/kg twice a day; bone marrow, blood, lung, and BALF; dose-dependent
Protocol: as §3

[6] = system: cytokines (IFN-γ, IL-1β, IL-6, IL-17, TNF-α, GM-CSF, IL-10); assay: Cytokine levels in COPD model by ELISA; type: in vivo; settings: COPD rats; bone marrow, blood, lung, and BALF; dose-dependent
Protocol: as §3

T2 sequence (P53634 25-463): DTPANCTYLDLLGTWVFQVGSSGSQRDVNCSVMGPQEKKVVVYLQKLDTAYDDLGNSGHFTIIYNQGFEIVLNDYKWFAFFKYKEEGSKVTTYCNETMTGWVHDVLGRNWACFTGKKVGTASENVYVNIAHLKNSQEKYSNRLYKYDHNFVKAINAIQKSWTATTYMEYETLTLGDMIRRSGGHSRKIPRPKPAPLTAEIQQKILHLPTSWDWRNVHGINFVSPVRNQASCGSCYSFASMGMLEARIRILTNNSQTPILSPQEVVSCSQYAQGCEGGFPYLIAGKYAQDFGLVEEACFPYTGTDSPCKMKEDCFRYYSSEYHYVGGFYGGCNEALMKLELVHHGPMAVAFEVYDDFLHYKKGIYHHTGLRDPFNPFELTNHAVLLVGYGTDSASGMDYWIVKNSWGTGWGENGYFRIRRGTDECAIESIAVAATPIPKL
T1 sequence (P53634 25-463): as above
Sequence of human recombinant cathepsin C (P53634 25-463): as above

Row | Molecule | IC50 [1] | IC50 [2] | IC50 [3] | LD50 at 1 week [4] | pathological changes in tissues and organs (HE staining) (ICR mice) | cathepsin C activity and downstream NSP activation (cathepsin C and NSPs) | histopathological changes of lung tissue (H&E staining) (COPD rat model; COPD rat model) | body weight (COPD rat model; COPD rats) | pulmonary inflammation and systemic inflammation (COPD rat model; COPD rats, 28 days, compared with the model group) | cathepsin C activity and downstream NSP activation [5] | IL-10 level [6] | level of pro-inflammatory cytokines (IFN-γ, IL-1β, IL-6, IL-17, TNF-α, and GM-CSF) [6]
1 | CON1CCN(c2ccc(Nc3ncc(C)c(Nc4cccc(C(F)(F)F)c4)n3)nc2)CC1 [Compound 67, 5-methyl-N^2-(5-(4-methoxypiperazin-1-yl)pyridin-2-yl)-N^4-(3-(trifluoromethyl)phenyl)pyrimidine-2,4-diamine] | 167 ± 2.01 nM | 139.8 ± 1.03 nM | 156 ± 2.13 nM |  |  |  |  |  |  |  |  | 
2 | CN1CCN(c2ccc(Nc3ncc(Cl)c(Nc4cccc(C(F)(F)F)c4)n3)nc2)CC1 [Compound 41, 5-chloro-N^2-(5-(4-methylpiperazin-1-yl)pyridin-2-yl)-N^4-(3-(trifluoromethyl)phenyl)pyrimidine-2,4-diamine] |  |  |  | > 1500 mg/kg | no pathological changes were found | decreased obviously | ameliorated these histopathological changes in an obvious dose-dependent manner | lost their weight slowly and gained weight slightly after about 20 days | significantly less suffered from pulmonary inflammation and systemic inflammation | decreased obviously | increased cytokines (IL-10) in a dose-dependent manner | decreased level of pro-inflammatory cytokines
3 | 5-chloro-N^2-(5-(4-(dimethylamino)phenyl)pyridin-2-yl)-N^4-(3-(trifluoromethyl)phenyl)pyrimidine-2,4-diamine [Compound 61] | 305.3 ± 2.7 nM | 278.2 ± 1.2 nM | 377.5 ± 0.9 nM |  |  |  |  |  |  |  |  | 
4 | CCCCN1CCN(c2ccc(Nc3ncc(Cl)c(Nc4cccc(C(F)(F)F)c4)n3)nc2)CC1 [Compound 48, N^2-(5-(4-butylpiperazin-1-yl)pyridin-2-yl)-5-chloro-N^4-(3-(trifluoromethyl)phenyl)pyrimidine-2,4-diamine] |  | 240.5 ± 1.2 nM | 199 ± 2.03 nM |  |  |  |  |  |  |  |  | 
